Experiments:
[1] = tested on: NCI-H23; assay: NCI-60 SRB growth assay; format: cell-based, human
[2] = tested on: SF-268; assay: NCI-60 SRB growth assay; format: cell-based, human
[3] = tested on: HOP-92; assay: NCI-60 SRB growth assay; format: cell-based, human
[4] = tested on: UACC-257; assay: NCI-60 SRB growth assay; format: cell-based, human
[5] = tested on: HCT-15; assay: NCI-60 SRB growth assay; format: cell-based, human; conditions: HCT-15
[6] = tested on: HEK; assay: MTT cytotoxicity assay; format: cell-based; conditions: Homo sapiens, HEK293, 48 h
[7] = tested on: NCI-H522; assay: NCI-60 SRB growth assay; format: cell-based, human
[8] = tested on: CCRF-CEM; assay: NCI-60 SRB growth assay; format: cell-based, human
[9] = tested on: HT29; assay: NCI-60 SRB growth assay; format: cell-based, human
[10] = tested on: SW-620; assay: NCI-60 SRB growth assay; format: cell-based, human; conditions: Homo sapiens
[11] = tested on: MCF7; assay: NCI-60 SRB growth assay; format: cell-based, human
[12] = tested on: LOX IMVI; assay: NCI-60 SRB growth assay; format: cell-based, human
[13] = tested on: 786-0; assay: NCI-60 SRB growth assay; format: cell-based, human
[14] = tested on: NCI/ADR-RES; assay: NCI-60 SRB growth assay; format: cell-based, human
[15] = tested on: MDA-MB-468; assay: NCI-60 SRB growth assay; format: cell-based, human; conditions: MDA-MB-468
[16] = tested on: OVCAR-4; assay: NCI-60 SRB growth assay; format: cell-based, human
[17] = tested on: COLO 205; assay: NCI-60 SRB growth assay; format: cell-based, human; conditions: COLO 205
[18] = tested on: MDA-MB-231/ATCC; assay: NCI-60 SRB growth assay; format: cell-based, human
[19] = tested on: MOLT-4; assay: NCI-60 SRB growth assay; format: cell-based, human
[20] = tested on: UO-31; assay: NCI-60 SRB growth assay; format: cell-based, human
[21] = tested on: NCI-H226; assay: NCI-60 SRB growth assay; format: cell-based, human
[22] = tested on: HCT-116; assay: NCI-60 SRB growth assay; format: cell-based, human; conditions: HCT-116
[23] = tested on: A498; assay: NCI-60 SRB growth assay; format: cell-based, human
[24] = tested on: RXF 393; assay: NCI-60 SRB growth assay; format: cell-based, human
[25] = tested on: oligo-1: d(CGCGAATTCGCG)2; assay: UV thermal denaturation; format: binding
[26] = tested on: KM12; assay: NCI-60 SRB growth assay; format: cell-based, human
[27] = tested on: SR; assay: NCI-60 SRB growth assay; format: cell-based, human
[28] = tested on: RPMI-8226; assay: NCI-60 SRB growth assay; format: cell-based, human; conditions: RPMI-8226
[29] = tested on: SN12C; assay: NCI-60 SRB growth assay; format: cell-based, human
[30] = tested on: UACC-62; assay: NCI-60 SRB growth assay; format: cell-based, human
[31] = tested on: DU-145; assay: NCI-60 SRB growth assay; format: cell-based, human
[32] = tested on: SF-295; assay: NCI-60 SRB growth assay; format: cell-based, human
[33] = tested on: ACHN; assay: NCI-60 SRB growth assay; format: cell-based, human

Q: What does the source list for CCCCN1CCN(c2ccc3[nH]c(-c4ccc5[nH]c(-c6ccc(C(F)(F)F)cc6)nc5c4)nc3c2)CC1 [12b, 5-(5-(4-Butylpiperazin-1-yl)-1H-benzo[d]imidazol-2-yl)2(4(trifluoromethyl)phenyl)-1H-benzo[d]imidazole]?
A: GI50 ([1]; Homo sapiens, NCI-H23): 1650 nM; CC50 ([1]; Homo sapiens, NCI-H23, read-out: LC50): 6800 nM; TGI ([1]; NCI–H23): 3360 nM; GI50 ([2]; Homo sapiens, SF-268): 1700 nM; CC50 ([2]; Homo sapiens, SF-268, read-out: LC50): 6400 nM; TGI ([2]; SF-268): 3300 nM; TGI ([3]; HOP-92): 2780 nM; GI50 ([3]; Homo sapiens, HOP-92): 1180 nM; CC50 ([3]; Homo sapiens, HOP-92, read-out: LC50): 6500 nM; GI50 ([4]; Homo sapiens, UACC-257): 1700 nM; CC50 ([4]; Homo sapiens, UACC-257, read-out: LC50): 7200 nM; TGI ([4]; UACC-257): 3500 nM; TGI [5]: 740 nM; GI50 ([5]; Homo sapiens): 270 nM; IC50 [6]: 2700 nM; GI50 ([7]; Homo sapiens, NCI-H522): 1600 nM; TGI ([7]; NCI–H522): 3600 nM; TGI [8]: 1030 nM; GI50 ([8]; Homo sapiens): 300 nM; CC50 ([8]; Homo sapiens, read-out: LC50): 5040 nM; TGI ([9]; HT29): 1420 nM; GI50 ([9]; Homo sapiens, HT-29): 340 nM; GI50 ([10]; SW-620): 210 nM; CC50 ([10]; SW-620, read-out: LC50): 450 nM; TGI [11]: 570 nM; GI50 ([11]; Homo sapiens): 170 nM; TGI [12]: 1100 nM; GI50 ([12]; Homo sapiens): 380 nM; TGI ([13]; 786–0): 3040 nM; GI50 ([13]; Homo sapiens, 786-0): 1470 nM; TGI [14]: 57700 nM; GI50 ([14]; Homo sapiens): 2100 nM; CC50 ([14]; Homo sapiens, read-out: LC50): > 100000 nM; GI50 ([15]; Homo sapiens): 1660 nM; TGI [15]: 3340 nM; GI50 ([16]; Homo sapiens, OVCAR-4): 600 nM; CC50 ([16]; Homo sapiens, OVCAR-4, read-out: LC50): 5200 nM; TGI ([16]; OVCAR-4): 1800 nM; TGI [17]: 3100 nM; GI50 ([17]; Homo sapiens): 1300 nM; GI50 ([18]; Homo sapiens, MDA-MB-231): 1460 nM; CC50 ([18]; Homo sapiens, MDA-MB-231, read-out: LC50): 5840 nM; TGI ([18]; MDA-MB-231): 2920 nM; GI50 ([19]; Homo sapiens, MOLT-4): 1070 nM; CC50 ([19]; Homo sapiens, MOLT-4, read-out: LC50): 6300 nM; TGI ([19]; MOLT-4): 2500 nM; GI50 ([20]; Homo sapiens, UO-31): 1770 nM; CC50 ([20]; Homo sapiens, UO-31, read-out: LC50): 5900 nM; TGI ([20]; UO-31): 3240 nM; GI50 ([21]; Homo sapiens, NCI-H226): 1570 nM; TGI ([21]; NCI–H226): 3590 nM; TGI [22]: 420 nM; GI50 ([22]; Homo sapiens): 200 nM; TGI ([23]; A498): 3310 nM; GI50 ([23]; Homo sapiens, A498): 1690 nM; CC50 ([23]; Homo sapiens, A498, read-out: LC50): 6490 nM; GI50 ([24]; Homo sapiens, RXF 393): 470 nM; TGI ([24]; RXF393): 1500 nM; ΔTm ([25]; r = 0.5): 3 °C; Tm ([25]; r = 0.5, oligo 2.5 μM): 57.7 °C; Tm ([25]; r = 1): 58.7 °C; ΔTm ([25]; r = 1): 4 °C; Tm ([25]; r = 1.5): 59.7 °C; ΔTm ([25]; r = 1.5): 5 °C; Tm ([25]; r = 2.0): 61.7 °C; ΔTm ([25]; r = 2.0): 7 °C; GI50 ([26]; Homo sapiens, KM12): 670 nM; CC50 ([26]; Homo sapiens, KM12, read-out: LC50): 4900 nM; TGI ([26]; KM12): 2040 nM; TGI [27]: 650 nM; GI50 ([27]; Homo sapiens): 260 nM; GI50 ([28]; Homo sapiens): 250 nM; TGI [28]: 620 nM; GI50 ([29]; Homo sapiens, SN12C): 1540 nM; TGI ([29]; SN12c): 3020 nM; GI50 ([30]; Homo sapiens, UACC-62): 1500 nM; CC50 ([30]; Homo sapiens, UACC-62, read-out: LC50): 5800 nM; TGI ([30]; UACC-62): 2900 nM; TGI ([31]; DU-145): 1680 nM; GI50 ([31]; Homo sapiens, DU-145): 450 nM; CC50 ([31]; Homo sapiens, DU-145, read-out: LC50): 4300 nM; GI50 ([32]; Homo sapiens, SF-295): 1340 nM; CC50 ([32]; Homo sapiens, SF-295, read-out: LC50): 5400 nM; TGI ([32]; SF-265): 2700 nM; TGI [33]: 2600 nM; GI50 ([33]; Homo sapiens): 1320 nM; CC50 ([33]; Homo sapiens, read-out: LC50): 5140 nM

Reference: article PMC8793051 (ACS Omega, 2022)
